Reference: patent publication US6902744B1, “Exendin agonist formulations and methods of administration thereof” (Amylin Pharmaceuticals, Inc., priority 1999, dated 2005)

Test system: Sprague-Dawley rats
Experiment: Insulinotropic action during an intravenous glucose challenge in rats
Assay type: in vivo
Conditions: peptide 30 pmol/kg/min i.v.; n.s. versus saline

For GLP-1[7-36]NH2, which “increase of 60-min insulin AUC versus saline-treated rats” value is on record?
Its value is 20%.
